According to US9388189B2, “Pyrrolotriazinone derivatives as PI3K inhibitors” (ALMIRALL, S.A., priority 2012, dated 2016):
pIC50: −log10 of the molar value.

Molecular target: PI3Kδ (PI3Kd) (Homo sapiens (Human), UniProt O00329)
Assay: PI3K HTRF enzymatic inhibition assay (cell-free), delta isoform
Conditions: read-out: IC50 PI3Kd HTRF; recombinant PI3K delta, [ATP] 15 μM, [PIP2] 2 μM, 30 min preincubation
From the text: Compounds were screened for their ability to inhibit PI3Kα (PI3Ka), PI3Kβ (PI3Kb), PI3Kδ (PI3Kd) and PI3Kγ (PI3Kg) using a cell-free based PI3K HTRF™ assay (Millipore, ref. #33-017).
PI-3 Kinase HTRF kit (ref. #33-037) and the different PI3K recombinant isoforms (ref. #14-602, ref. #14-603, ref. #14-604, ref. #15-558 for Alpha, Beta, Delta and Gamma respectively) were purchased at Millipore (expressed in insect cells). ATP was purchased at Sigma Aldrich (ref. #A7699).
The compounds were pre-incubated with the enzyme for 30 min before starting of the catalytic reaction. [PIP2] was used at its Km. […] Time of assay and [Enzyme] were optimized to work in the linear range. Stop and Detection mixtures were used as specified in the Millipore PI-3 Kinase kit.
Reaction time and enzyme concentration in the assay will depend of each batch.
All experiments were analysed using Activity Base software from IDBS and the four-parameter log equation.

Chain of PI3Kδ (PI3Kd) (O00329 whole entry, canonical isoform): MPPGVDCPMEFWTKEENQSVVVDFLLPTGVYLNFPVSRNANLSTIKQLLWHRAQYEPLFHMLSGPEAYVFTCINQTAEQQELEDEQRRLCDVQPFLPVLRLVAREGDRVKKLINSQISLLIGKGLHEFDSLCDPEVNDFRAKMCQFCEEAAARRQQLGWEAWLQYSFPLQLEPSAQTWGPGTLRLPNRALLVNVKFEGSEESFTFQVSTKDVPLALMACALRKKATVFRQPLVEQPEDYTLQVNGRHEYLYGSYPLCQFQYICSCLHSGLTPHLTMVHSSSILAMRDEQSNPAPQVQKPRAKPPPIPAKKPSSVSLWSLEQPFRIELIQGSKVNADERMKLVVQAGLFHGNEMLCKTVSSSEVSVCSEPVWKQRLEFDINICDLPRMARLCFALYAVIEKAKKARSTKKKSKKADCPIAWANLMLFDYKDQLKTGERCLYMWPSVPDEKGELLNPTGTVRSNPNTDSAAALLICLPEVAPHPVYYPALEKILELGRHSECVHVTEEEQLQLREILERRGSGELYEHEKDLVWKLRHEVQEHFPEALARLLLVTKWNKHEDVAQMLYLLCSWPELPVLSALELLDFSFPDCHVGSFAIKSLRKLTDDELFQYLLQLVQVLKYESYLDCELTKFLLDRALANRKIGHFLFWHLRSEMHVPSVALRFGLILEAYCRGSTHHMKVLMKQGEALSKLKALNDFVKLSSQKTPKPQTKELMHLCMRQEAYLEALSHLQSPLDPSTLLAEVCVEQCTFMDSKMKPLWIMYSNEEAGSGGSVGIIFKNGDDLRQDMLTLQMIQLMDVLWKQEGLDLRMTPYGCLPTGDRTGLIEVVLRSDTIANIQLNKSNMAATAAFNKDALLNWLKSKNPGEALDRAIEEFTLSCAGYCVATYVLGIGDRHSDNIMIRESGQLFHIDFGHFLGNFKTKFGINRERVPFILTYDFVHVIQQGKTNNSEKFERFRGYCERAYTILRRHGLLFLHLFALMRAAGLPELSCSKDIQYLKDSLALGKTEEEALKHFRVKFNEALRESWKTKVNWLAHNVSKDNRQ
Chain of PI3Kδ (PI3Kd) (P27986 whole entry partner, canonical isoform): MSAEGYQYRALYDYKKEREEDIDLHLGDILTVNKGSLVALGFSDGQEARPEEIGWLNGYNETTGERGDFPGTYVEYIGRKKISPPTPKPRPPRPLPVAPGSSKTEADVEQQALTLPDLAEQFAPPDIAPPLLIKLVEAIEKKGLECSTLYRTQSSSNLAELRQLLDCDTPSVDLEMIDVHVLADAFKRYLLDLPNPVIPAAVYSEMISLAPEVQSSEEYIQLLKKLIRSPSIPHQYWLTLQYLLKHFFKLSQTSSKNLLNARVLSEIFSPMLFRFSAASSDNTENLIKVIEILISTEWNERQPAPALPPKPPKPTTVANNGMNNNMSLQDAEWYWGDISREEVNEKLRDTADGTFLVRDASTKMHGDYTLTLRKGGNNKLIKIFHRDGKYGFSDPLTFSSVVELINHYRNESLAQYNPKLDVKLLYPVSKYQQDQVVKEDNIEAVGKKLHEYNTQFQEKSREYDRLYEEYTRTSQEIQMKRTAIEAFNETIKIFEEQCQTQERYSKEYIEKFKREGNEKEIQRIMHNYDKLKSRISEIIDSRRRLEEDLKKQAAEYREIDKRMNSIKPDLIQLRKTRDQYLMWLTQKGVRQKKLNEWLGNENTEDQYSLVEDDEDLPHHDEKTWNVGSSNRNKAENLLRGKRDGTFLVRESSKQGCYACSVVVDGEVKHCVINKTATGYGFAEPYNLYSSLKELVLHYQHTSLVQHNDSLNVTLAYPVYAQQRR

Compound `C[C@H](Nc1ncnc(N)c1-c1nnn[nH]1)c1nn2cccc2c(=O)n1-c1ccccc1` [Example 1, (S)-2-(1-(6-Amino-5-(1H-tetrazol-5-yl)pyrimidin-4-ylamino)ethyl)-3-phenylpyrrolo[1,2-f][1,2,4]triazin-4(3H)-one] has a pIC50 of 7.82.
With `C[C@H](Nc1ncnc(N)c1-c1nccs1)c1nn2cccc2c(=O)n1-c1ccccc1` [Example 2, (S)-2-(1-((6-Amino-5-(thiazol-2-yl)pyrimidin-4-yl)amino)ethyl)-3-phenylpyrrolo[2,1-f][1,2,4]triazin-4(3H)-one] the pIC50 was 7.66.
`C[C@H](Nc1ncnc(N)c1-c1ccc(N)nc1)c1nn2cccc2c(=O)n1-c1ccccc1` [Example 3, (S)-2-(1-((6-Amino-5-(6-aminopyridin-3-yl)pyrimidin-4-yl)amino)ethyl)-3-phenylpyrrolo[2,1-f][1,2,4]triazin-4(3H)-one] showed a pIC50 of 7.40.
Compound `C[C@H](Nc1ncnc(N)c1-c1cnn(CCO)c1)c1nn2cccc2c(=O)n1-c1ccccc1` [Example 5, (S)-2-(1-((6-Amino-5-(1-(2-hydroxyethyl)-1H-pyrazol-4-yl)pyrimidin-4-yl)amino)ethyl)-3-phenylpyrrolo[2,1-f][1,2,4]triazin-4(3H)-one] has a pIC50 of 7.77.
In the case of `C[C@H](Nc1ncnc(N)c1-c1cc(O)cc(F)c1)c1nn2cccc2c(=O)n1-c1ccccc1` [Example 7, (S)-2-(1-((6-Amino-5-(3-fluoro-5-hydroxyphenyl)pyrimidin-4-yl)amino)ethyl)-3-phenylpyrrolo[2,1-f][1,2,4]triazin-4(3H)-one], the pIC50 was 7.96.
With `Cc1ccn2nc([C@H](C)Nc3ncnc(N)c3-c3ccc4cc[nH]c4c3)n(-c3ccccc3)c(=O)c12` [Example 15, (S)-2-(1-((6-Amino-5-(1H-indol-6-yl)pyrimidin-4-yl)amino)ethyl)-5-methyl-3-phenylpyrrolo[2,1-f][1,2,4]triazin-4(3H)-one] the pIC50 was 8.52.
With `Cc1ccn2nc([C@H](C)Nc3ncnc(N)c3-c3cnc(N)nc3)n(-c3ccccc3)c(=O)c12` [Example 16, (S)-2-(1-((2′,6-Diamino-[5,5′-bipyrimidin]-4-yl)amino)ethyl)-5-methyl-3-phenylpyrrolo[2,1-f][1,2,4]triazin-4(3H)-one] the pIC50 was 8.30.
For `N#Cc1c(N)ncnc1N[C@@H](CCOCc1ccccc1)c1nn2ccc(C#N)c2c(=O)n1-c1cc(F)cc(F)c1` [Example 17, (S)-2-(1-((6-Amino-5-cyanopyrimidin-4-yl)amino)-3-(benzyloxy)propyl)-3-(3,5-difluorophenyl)-4-oxo-3,4-dihydropyrrolo[2,1-f][1,2,4]triazine-5-carbonitrile], the pIC50 was 8.22.
Work on `N#Cc1c(N)ncnc1N[C@@H](CCSCc1ccccc1)c1nn2cccc2c(=O)n1-c1ccccc1` [Example 19, (S)-4-Amino-6-((3-(benzylthio)-1-(4-oxo-3-phenyl-3,4-dihydropyrrolo[2,1-f][1,2,4]triazin-2-yl)propyl)amino)pyrimidine-5-carbonitrile] yielded a pIC50 of 7.02.
For `N#Cc1c(N)ncnc1N[C@@H](CCOc1ccccc1)c1nn2cccc2c(=O)n1-c1ccccc1` [Example 20, (S)-4-Amino-6-((1-(4-oxo-3-phenyl-3,4-dihydropyrrolo[2,1-f][1,2,4]triazin-2-yl)-3-phenoxypropyl)amino)pyrimidine-5-carbonitrile], the pIC50 was 9.00.
With `COc1ncc(-c2c(N)ncnc2N[C@@H](C)c2nn3ccc(C)c3c(=O)n2-c2ccccc2)cc1NS(=O)(=O)c1ccc(F)cc1` [Example 22, (S)—N-(5-(4-Amino-6-((1-(5-methyl-4-oxo-3-phenyl-3,4-dihydropyrrolo[2,1-f][1,2,4]triazin-2-yl)ethyl)amino)pyrimidin-5-yl)-2-methoxypyridin-3-yl)-4-fluorobenzenesulfonamide] the pIC50 was 7.92.
`N#Cc1ccn2nc([C@H](CCOCc3ccccc3)Nc3ncnc(N)c3-c3cc(O)cc(F)c3)n(-c3cc(F)cc(F)c3)c(=O)c12` [Example 24, (S)-2-(1-((6-Amino-5-(3-fluoro-5-hydroxyphenyl)pyrimidin-4-yl)amino)-3-(benzyloxy)propyl)-3-(3,5-difluorophenyl)-4-oxo-3,4-dihydropyrrolo[2,1-f][1,2,4]triazine-5-carbonitrile] showed a pIC50 of 7.01.
With `Cc1ccn2nc([C@H](C)Nc3ncnc4[nH]cc(-c5cc(O)cc(F)c5)c34)n(-c3ccccc3)c(=O)c12` [Example 27, (S)-2-(1-((5-(3-Fluoro-5-hydroxyphenyl)-7H-pyrrolo[2,3-d]pyrimidin-4-yl)amino)ethyl)-5-methyl-3-phenylpyrrolo[2,1-f][1,2,4]triazin-4(3H)-one] the pIC50 was 9.00.
With `Cc1ccn2nc([C@H](C)Nc3ncnc(N)c3-c3cc(O)cc(C(F)(F)F)c3)n(-c3ccccc3)c(=O)c12` [Example 28, (S)-2-(1-((6-Amino-5-(3-hydroxy-5-(trifluoromethyl)phenyl)pyrimidin-4-yl)amino)ethyl)-5-methyl-3-phenylpyrrolo[2,1-f][1,2,4]triazin-4(3H)-one] the pIC50 was 8.30.
With `C[C@H](Nc1ncnc(N)c1-c1cc(O)cc(F)c1)c1nn2ccc(Sc3ccccc3)c2c(=O)n1-c1ccccc1` [Example 34, (S)-2-(1-((6-Amino-5-(3-fluoro-5-hydroxyphenyl)pyrimidin-4-yl)amino)ethyl)-3-phenyl-5-(phenylthio)pyrrolo[2,1-f][1,2,4]triazin-4(3H)-one] the pIC50 was 7.92.
For `Cc1ccn2nc([C@H](C)Nc3ncncc3-c3cc(O)cc(F)c3)n(-c3ccccc3)c(=O)c12` [Example 35, (S)-2-(1-((5-(3-Fluoro-5-hydroxyphenyl)pyrimidin-4-yl)amino)ethyl)-5-methyl-3-phenylpyrrolo[2,1-f][1,2,4]triazin-4(3H)-one], the pIC50 was 8.40.
For `Cc1ccn2nc([C@H](C)Nc3ncnc4[nH]cc(C(=O)OCc5ccccc5)c34)n(-c3ccccc3)c(=O)c12` [Example 37, (S)-Benzyl 4-((1-(5-methyl-4-oxo-3-phenyl-3,4-dihydropyrrolo[2,1-f][1,2,4]triazin-2-yl)ethyl)amino)-7H-pyrrolo[2,3-d]pyrimidine-5-carboxylate], the pIC50 was 8.30.
Work on `COc1cccc(Cc2ccn3nc([C@H](C)Nc4ncnc(N)c4C#N)n(-c4ccccc4)c(=O)c23)c1` [Example 40, (S)-4-Amino-6-((1-(5-(3-methoxybenzyl)-4-oxo-3-phenyl-3,4-dihydropyrrolo[2,1-f][1,2,4]triazin-2-yl)ethyl)amino)pyrimidine-5-carbonitrile] yielded a pIC50 of 7.52.
`Cc1ccn2nc([C@H](C)Nc3ncnc4[nH]cc(Cc5cccc(O)c5)c34)n(-c3ccccc3)c(=O)c12` [Example 43, (S)-2-(1-((5-(3-Hydroxybenzyl)-7H-pyrrolo[2,3-d]pyrimidin-4-yl)amino)ethyl)-5-methyl-3-phenylpyrrolo[2,1-f][1,2,4]triazin-4(3H)-one] showed a pIC50 of 8.52.
`COc1ncc(-c2c[nH]c3ncnc(N[C@@H](C)c4nn5ccc(C)c5c(=O)n4-c4ccccc4)c23)cc1NS(C)(=O)=O` [Example 45, (S)—N-(2-Methoxy-5-(4-((1-(5-methyl-4-oxo-3-phenyl-3,4-dihydropyrrolo[2,1-f][1,2,4]triazin-2-yl)ethyl)amino)-7H-pyrrolo[2,3-d]pyrimidin-5-yl)pyridin-3-yl)methanesulfonamide] was tested, and the pIC50 was 8.70.
With `Cc1ccn2nc([C@H](C)Nc3ncnc4[nH]cc(-c5cccc6[nH]ncc56)c34)n(-c3ccccc3)c(=O)c12` [Example 52] the pIC50 was 9.00.
With `Cc1ccn2nc([C@H](C)Nc3ncnc4sccc34)n(-c3ccccc3)c(=O)c12` [Example 59, (S)-5-Methyl-3-phenyl-2-(1-(thieno[2,3-d]pyrimidin-4-ylamino)ethyl)pyrrolo[2,1-f][1,2,4]triazin-4(3H)-one] the pIC50 was 8.00.
In the case of `Cc1ccn2nc([C@H](C)Nc3ncnc(N)c3Cc3cccc(O)c3)n(-c3ccccc3)c(=O)c12` [Example 64, (S)-2-(1-((6-Amino-5-(3-hydroxybenzyl)pyrimidin-4-yl)amino)ethyl)-5-methyl-3-phenylpyrrolo[2,1-f][1,2,4]triazin-4(3H)-one], the pIC50 was 7.80.
`C[C@H](Nc1ncnc(N)c1C#N)c1nn2ccc(Cc3cccc(O)c3)c2c(=O)n1-c1ccccc1` [Example 74, (S)-4-Amino-6-((1-(5-(3-hydroxybenzyl)-4-oxo-3-phenyl-3,4-dihydropyrrolo[2,1-f][1,2,4]triazin-2-yl)ethyl)amino)pyrimidine-5-carbonitrile] gave a pIC50 of 7.44.
In the case of `Cc1ccn2nc([C@H](C)Nc3ncnc4[nH]cc(-c5cc(NS(C)(=O)=O)cc(N(C)C)c5)c34)n(-c3ccccc3)c(=O)c12` [Example 76, (S)—N-(3-(Dimethylamino)-5-(4-((1-(5-methyl-4-oxo-3-phenyl-3,4-dihydropyrrolo[2,1-f][1,2,4]triazin-2-yl)ethyl)amino)-7H-pyrrolo[2,3-d]pyrimidin-5-yl)phenyl)methanesulfonamide], the pIC50 was 9.10.
For `Cc1ccn2nc([C@H](C)Nc3ncnc4[nH]cc(Cc5cc(O)cc(F)c5)c34)n(-c3ccccc3)c(=O)c12` [Example 78, (S)-2-(1-((5-(3-Fluoro-5-hydroxybenzyl)-7H-pyrrolo[2,3-d]pyrimidin-4-yl)amino)ethyl)-5-methyl-3-phenylpyrrolo[2,1-f][1,2,4]triazin-4(3H)-one], the pIC50 was 9.40.
In the case of `Cc1ccn2nc([C@H](C)Nc3ncnc4[nH]cc(C#Cc5ccccc5)c34)n(-c3ccccc3)c(=O)c12` [Example 80, (S)-5-Methyl-3-phenyl-2-(1-((5-(phenylethynyl)-7H-pyrrolo[2,3-d]pyrimidin-4-yl)amino)ethyl)pyrrolo[2,1-f][1,2,4]triazin-4(3H)-one], the pIC50 was 9.52.
For `Cc1ccn2nc([C@H](C)Nc3ncnc4[nH]cc(-c5cccc(S(=O)(=O)N6CCOCC6)c5)c34)n(-c3ccccc3)c(=O)c12` [Example 85, (S)-5-Methyl-2-(1-((5-(3-(morpholinosulfonyl)phenyl)-7H-pyrrolo[2,3-d]pyrimidin-4-yl)amino)ethyl)-3-phenylpyrrolo[2,1-f][1,2,4]triazin-4(3H)-one], the pIC50 was 9.52.
With `Cc1ccn2nc([C@H](C)Nc3ncnc4[nH]cc(Sc5ccc(O)cc5)c34)n(-c3ccccc3)c(=O)c12` [Example 97, (S)-2-(1-((5-((4-Hydroxyphenyl)thio)-7H-pyrrolo[2,3-d]pyrimidin-4-yl)amino)ethyl)-5-methyl-3-phenylpyrrolo[2,1-f][1,2,4]triazin-4(3H)-one] the pIC50 was 8.70.
